Data taken from patent US8455397B2, “Penoxsulam as a turfgrass, vineyard and orchard floor herbicide” (Dow AgroSciences, LLC, priority 2005, dated 2013).

Tests used:
common mallow (MALNE) = experiment: Pre-emergence orchard floor weeds, greenhouse study; format: in vivo, Malva neglecta; settings: 28 Days After Application
Experimental: Greenhouse studies were conducted by seeding species in a loam soil and applying the herbicides to the soil surface using a Cornwall 5 milliliter glass syringe fitted with a TeeJet TN-3 nozzle on an area basis Immediately following herbicide application the pots were irrigated over the top to move the herbicides into the seeding zone. Pots were kept well irrigated throughout the trial. A percent visual weed control assessment was taken 4 weeks after application. Control was determined visually by comparing treated and untreated pots and scored on a 0 to 100 percent scale where 0 corresponds to no control and 100 corresponds to complete kill, or no emergence.

[1] = tested on: Cyperus esculentus (CYPES); experiment: Post emergence synergy greenhouse study, penoxsulam + commercial turf granules; format: in vivo; settings: 27 Days After Application
Experimental: Post emergence greenhouse studies were conducted by applying a 0.14% w/w (weight for weight) penoxsulam loaded urea granule alone and in combination with commercial turf granules. The loading for the commercial granules is listed below Table XI. Greenhouse studies were applied on a kilogram of product per hectare basis (KG PR/Ha) post emergence to broadleaf weeds and sedge reared from seed or nutlet in 12.7″ (32.25 cm) by 8.8″ (22.35 cm) flats of a loam soil. Trial design was replicated block, one species per flat, 4 replicate flats per treatment. Post emergence applications were made to the flat covering both soil and misted foliage using a common hand-shaker method distributing the samples uniformly over the flat. Trial was sub-irrigated daily, and watered over the top 1 time per week starting 7 days after application to simulate a natural rainfall event. Active weed growth was maintained throughout the study period. Weed control was assessed at 2, 3 and 4 weeks after treatment. Control was determined visually by comparing treated and untreated flats and scored on a 0 to 100 percent scale where 0 corresponds to no control and 100 corresponds to complete kill.

dandelion (TAROF) = experiment: Granule carrier/particle size, post emergence greenhouse study; format: in vivo, Taraxacum officinale; settings: postemergent greenhouse
Experimental: Greenhouse and field studies evaluated the effect of two granule carriers and two particles sizes on the postemergent broadleaf activity of penoxsulam. The two carriers were a 46-0-0 and 28-4-12 fertilizer blend and the particle sizes averaged 0.75 mm and 2.15 mm.
Greenhouse studies were applied both post and pre-emergence to broadleaf weeds and sedge reared from seed or nutlet in 12.7″ (32.25 cm) by 8.8″ (22.35 cm) flats of a loam soil. Particle size and carrier were evaluated post emergence, carrier comparisons with the smaller particle size of 0.75 was evaluated pre-emergence. Stage of growth of species at post emergence application: PLAMA and TAROF in the 3 to 5 leaf stage, TRFRE in the 3rd tri-foliate stage and CYPES in the 3 to 4 leaf stage. Post emergence trial design was a replicated block, one species per flat, 3 replicate flats per treatment. Granule treatments were uniformly applied to individual flats on an area basis using a common hand-shaker method. Post emergence applications were made to the flat covering both soil and misted foliage. Trial was sub-irrigated daily, and watered over the top 1 time per week starting 7 days after application to simulate a natural rainfall event. Active weed growth was maintained throughout the study period. Weed control of each species in the post emergence study was assessed at 2, 3 and 4 weeks after treatment. Pre-emergence trial design was 2 species per flat, 4 replicate flats, block design. Pre-emergence applications were made to the soil surface using a common hand shaker method on an area basis. Overhead irrigation was maintained throughout the trial. Weed control of each species in the pre-emergence study was assessed at 2, 3, 4 and 5 weeks after application. Control was determined visually by comparing treated and untreated flats and scored on a 0 to 100 percent scale where 0 corresponds to no control and 100 corresponds to complete kill.

[2] = tested on: broadleaf weeds and sedges; experiment: Weed control in turfgrass and vine and orchard floors (general statement); format: in vivo; settings: TRFRE, PLALA, TAROF, PLAMA, GLEHE, LESST, HYDSS, DIQVI, BELPE, CYPES
turfgrass = settings: in vivo
barnyardgrass (ECHCG) = experiment: Pre-emergence weed nursery field study; format: in vivo, Echinochloa crus-galli; settings: weed nursery in the field, 27 Days After Application
Experimental: (§1) Field studies were conducted in a non-fumigated weed nursery trial. Weed species were planted in single strips with a row planter at 36 centimeter spacing. Plot size was 3.05×9.2 meters, 4 replicate plots per treatment. Weed species were seeded at appropriate depths and later the same day pre-emergent applications were made to the soil surface. Liquid applications were made using a backpack sprayer calibrated to deliver 187 liters per hectare (L/ha). Applications were made in Fresno, Calif. in June. Sprinkler irrigation was applied at regular intervals throughout study period. Control of each weed species in the study site was made 4 weeks after treatment. Control was determined visually by comparing treated and untreated weeds and scored on a 0 to 100 percent scale where 0 corresponds to no control and 100 corresponds to complete kill or no emergence.

yellow nutsedge (CYPES) = experiment: Pre-emergence weed nursery field study; format: in vivo, Cypres esculentus L.; settings: weed nursery in the field, 27 Days After Application
Experimental: as §1

[3] = tested on: broadleaf plantain (PLAMA); experiment: Postemergent granule herbicides, turfgrass field studies; format: in vivo, Plantago major L.; settings: Table I, 2 sites, Penoxsulam 140 gai/Ha, Scotts Plus 2 1682+841 gae/Ha, Trimec 1121+516+112 gae/Ha
Experimental: Field studies were conducted in established turfgrass sites containing a natural population of target broadleaf weeds. Replicated trials, containing a minimum of three replications and having individual plots ranging in size from 25 to 50 ft. sq (2.3 to 4.6 square meters), were initiated in the late spring when turf and weeds were actively growing. Granule treatments were uniformly applied to individual plots using a common hand-shaker method. Applications were made in the early morning when dew was present. Natural rainfall and supplemental irrigation were used to maintain healthy turf and active weed growth throughout the study period. Control of each weed species in the study site was made at 2, 4 and 8 weeks after treatment. Control was determined visually by comparing treated and untreated weeds and scored on a 0 to 100 percent scale where 0 corresponds to no control and 100 corresponds to complete kill.

COc1cnc(OC)n2nc(NS(=O)(=O)c3c(OCC(F)F)cccc3C(F)(F)F)nc12 [Penoxsulam, 2-(2,2-difluoroethoxy)-N-(5,8-dimethoxy[1,2,4]triazolo[1,5-c]-pyrimidin-2-yl)-6-(trifluoromethyl)benzenesulfonamide]
Pre-emergent Percent Mean Control (common mallow (MALNE); 8.8 gai/Ha): 60%
Pre-emergent Percent Mean Control (common mallow (MALNE); 17.5 gai/Ha): 92%
Pre-emergent Percent Mean Control (common mallow (MALNE); 35 gai/Ha): 95%
Pre-emergent Percent Mean Control (common mallow (MALNE); 70 gai/Ha): 98%
% Control Component A ([1]; 2.4 kg Product/Ha of 0.14% w/w urea granule): 16%
% Control Component A ([1]; 8.0 kg Product/Ha of 0.14% w/w urea granule): 44%
Percent Weed Control 27-30 DAA (dandelion (TAROF); carrier 28-4-12, particle size 0.75 mm, 5.6 gai/Ha): 50%
Percent Weed Control 27-30 DAA (dandelion (TAROF); carrier 28-4-12, particle size 0.75 mm, 11.2 gai/Ha): 88%
Percent Weed Control 27-30 DAA (dandelion (TAROF); carrier 28-4-12, particle size 0.75 mm, 22.4 gai/Ha): 97%
Percent Weed Control 27-30 DAA (dandelion (TAROF); carrier 28-4-12, particle size 2.15 mm, 5.6 gai/Ha): 23%
Percent Weed Control 27-30 DAA (dandelion (TAROF); carrier 28-4-12, particle size 2.15 mm, 11.2 gai/Ha): 60%
Percent Weed Control 27-30 DAA (dandelion (TAROF); carrier 28-4-12, particle size 2.15 mm, 22.4 gai/Ha): 68%
Percent Weed Control 27-30 DAA (dandelion (TAROF); carrier 46-0-0, particle size 0.75 mm, 5.6 gai/Ha): 55%
Percent Weed Control 27-30 DAA (dandelion (TAROF); carrier 46-0-0, particle size 0.75 mm, 11.2 gai/Ha): 67%
Percent Weed Control 27-30 DAA (dandelion (TAROF); carrier 46-0-0, particle size 0.75 mm, 22.4 gai/Ha): 98%
Percent Weed Control 27-30 DAA (dandelion (TAROF); carrier 46-0-0, particle size 2.15 mm, 5.6 gai/Ha): 23%
Percent Weed Control 27-30 DAA (dandelion (TAROF); carrier 46-0-0, particle size 2.15 mm, 11.2 gai/Ha): 48%
Percent Weed Control 27-30 DAA (dandelion (TAROF); carrier 46-0-0, particle size 2.15 mm, 22.4 gai/Ha): 60%
effectiveness against most important weeds [2]: particularly effective
damage to mature, well-established turfgrass (turfgrass): acceptable or no damage
Pre-emergent Percent Mean Control (barnyardgrass (ECHCG); 8.8 gai/Ha): 87%
Pre-emergent Percent Mean Control (barnyardgrass (ECHCG); 17.5 gai/Ha): 96%
Pre-emergent Percent Mean Control (barnyardgrass (ECHCG); 35 gai/Ha): 98%
Pre-emergent Percent Mean Control (barnyardgrass (ECHCG); 70 gai/Ha): 100%
Pre-emergent Percent Mean Control (yellow nutsedge (CYPES); 8.8 gai/Ha): 69%
Pre-emergent Percent Mean Control (yellow nutsedge (CYPES); 17.5 gai/Ha): 81%
Pre-emergent Percent Mean Control (yellow nutsedge (CYPES); 35 gai/Ha): 88%
Pre-emergent Percent Mean Control (yellow nutsedge (CYPES); 70 gai/Ha): 94%
Mean Percent Weed Control ([3]; 4 Weeks After Treatment): 81%
Mean Percent Weed Control ([3]; 8 Weeks After Treatment): 87%
